From patent US20240424111A1, “Degrader Compounds and Uses Thereof” (CALICO LIFE SCIENCES LLC, priority 2021, published 2024) come the findings set out here.

One may read the DC50 as the concentration at which degradation of the target reaches its halfway point. A higher DC50 goes with a less potent degrader.

For assay [1], the target named is T1, PTPN2 (Mus musculus, UniProt Q06180).
T1 construct: HiBiT; host or cells: B16F10.4
T1 sequence (Q06180 1-406): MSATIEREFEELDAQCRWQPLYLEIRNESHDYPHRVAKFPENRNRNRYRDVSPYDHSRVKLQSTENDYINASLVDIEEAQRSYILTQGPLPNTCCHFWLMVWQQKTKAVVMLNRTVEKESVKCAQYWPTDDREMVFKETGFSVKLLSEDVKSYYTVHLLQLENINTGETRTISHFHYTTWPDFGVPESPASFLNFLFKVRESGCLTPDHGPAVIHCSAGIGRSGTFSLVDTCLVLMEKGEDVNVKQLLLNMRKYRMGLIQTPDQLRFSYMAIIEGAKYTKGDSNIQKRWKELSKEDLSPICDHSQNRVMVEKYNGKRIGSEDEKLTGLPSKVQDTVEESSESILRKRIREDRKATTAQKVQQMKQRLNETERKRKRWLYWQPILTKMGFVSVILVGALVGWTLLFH
Nature of the assay: HiBiT PTPN2 degradation in B16F10.4 cells, 24 hours. Type of assay: cell-based. The method, boiled down: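 PTPN2 degradation was measured via luminescence from the Nano-Glo® HiBiT Lytic Assay kit. Compounds were dispensed into 384-well plates at an 11-point half-log titration in duplicate, starting at 10 μM. Cells were added at 5000 per well and held at 37° C. with 5% CO2 for 24 hours. Untreated cells were the negative control and cells without lytic reagent the positive control. Lytic reagents were then added and luminescence read on an EnVision™ Multilabel Reader.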

For assay [2], the target named is T2, PTPN2 (Homo sapiens, UniProt P17706).
T2 construct: expressed in transfected cells; host or cells: 293T.109 (HiBiT-PTPN2), derived from 293T WT (ATCC)
T2 sequence (P17706 1-415): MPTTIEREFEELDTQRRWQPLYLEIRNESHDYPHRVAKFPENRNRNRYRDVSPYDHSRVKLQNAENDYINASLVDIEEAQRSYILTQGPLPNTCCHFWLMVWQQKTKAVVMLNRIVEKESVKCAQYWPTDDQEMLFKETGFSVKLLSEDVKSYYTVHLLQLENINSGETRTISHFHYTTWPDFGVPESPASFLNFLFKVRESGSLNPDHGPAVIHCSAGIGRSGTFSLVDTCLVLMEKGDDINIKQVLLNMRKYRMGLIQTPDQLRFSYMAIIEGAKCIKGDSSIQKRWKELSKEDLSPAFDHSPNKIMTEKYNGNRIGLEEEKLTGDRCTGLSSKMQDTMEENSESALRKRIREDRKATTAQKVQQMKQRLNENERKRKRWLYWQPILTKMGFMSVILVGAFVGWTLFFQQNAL
Nature of the assay: HiBiT PTPN2 degradation in 293T.109 (HiBiT-PTPN2) cells, 24 hours. Type of assay: cell-based. Conditions: 293T.109 cells. The method, boiled down: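 293T cells stably expressing N-terminal HiBiT-tagged PTPN2 were treated for 24 h at 37 °C with compound in an 11-point half-log series from 10 μM top concentration, in duplicate. Remaining HiBiT-PTPN2 was measured by lytic luminescence, with untreated cells as the negative control and wells without lytic reagent as the positive control.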
(In general: HiBiT is a short tag that completes a luciferase, so light tracks the accessible tagged protein.)

Consider `Cn1c(=O)n(C2CCC(=O)NC2=O)c2cccc(N3CCC[C@@H](OCC(=O)Nc4ccc5c(F)c(N6CC(=O)NS6(=O)=O)c(O)cc5c4)C3)c21` (some centres unmarked) [Degrader 135], for which the DC50 at PTPN2 [1] and at PTPN2 [2] was ≥ 500 nM in each case.

Turning to `Cn1c(=O)n(C2CCC(=O)NC2=O)c2ccc(Cc3ccc(CC(=O)Nc4ccc5c(F)c(N6CC(=O)NS6(=O)=O)c(O)cc5c4)cc3)cc21` (centres unmarked) [Degrader 136], the values for the DC50 at PTPN2 [1] and at PTPN2 [2] were 50 to 150 nM and < 50 nM, respectively.

`Cn1c(=O)n(C2CCC(=O)NC2=O)c2ccc(-c3ccc([C@H](CO)C(=O)Nc4ccc5c(F)c(N6CC(=O)NS6(=O)=O)c(O)cc5c4)cc3)cc21` (some centres unmarked) [Degrader 137]: the DC50 at PTPN2 [1] is < 50 nM; on PTPN2 [2] it was 150 to 500 nM.

With `Cn1c(=O)n(C2CCC(=O)NC2=O)c2ccc(-c3ccc([C@@H](CO)C(=O)Nc4ccc5c(F)c(N6CC(=O)NS6(=O)=O)c(O)cc5c4)cc3)cc21` (some centres unmarked) [Degrader 138], the 50% degradation concentration (DC50) at PTPN2 [1] and on PTPN2 [2] was < 50 nM throughout.

Consider `Cn1c(=O)n(C2CCC(=O)NC2=O)c2ccc(N3CCN(CC(=O)Nc4ccc5c(F)c(N6CC(=O)NS6(=O)=O)c(O)cc5c4)C(=O)C3)cc21` (centres unmarked) [Degrader 139], for which the DC50 at PTPN2 [1] is ≥ 500 nM; on PTPN2 [2] it was 150 to 500 nM.

For the compound `Cn1c(=O)n(C2CCC(=O)NC2=O)c2ccc(C3CN(CC(=O)Nc4ccc5c(F)c(N6CC(=O)NS6(=O)=O)c(O)cc5c4)CCC3F)cc21` (centres unmarked) [Degrader 140], the DC50 was 150 to 500 nM at PTPN2 [1] and 50 to 150 nM on PTPN2 [2].

For the compound `Cn1c(=O)n(C2CCC(=O)NC2=O)c2ccc([C@@H]3CN(CC(=O)Nc4ccc5c(F)c(N6CC(=O)NS6(=O)=O)c(O)cc5c4)CC[C@H]3F)cc21` (some centres unmarked) [Degrader 141], the DC50 on PTPN2 [1] is 50 to 150 nM; on PTPN2 [2], < 50 nM.

Regarding `Cn1c(=O)n(C2CCC(=O)NC2=O)c2ccc([C@H]3CN(CC(=O)Nc4ccc5c(F)c(N6CC(=O)NS6(=O)=O)c(O)cc5c4)CC[C@@H]3F)cc21` (some centres unmarked) [Degrader 142], the DC50 on PTPN2 [1] and on PTPN2 [2] was 150 to 500 nM in each case.

Consider `O=C1CCC(N2C(=O)c3cccc4c(N5CCC(CC(=O)Nc6ccc7c(F)c(N8CC(=O)NS8(=O)=O)c(O)cc7c6)CC5)ccc2c34)C(=O)N1` (centres unmarked) [Degrader 143], for which the DC50 on PTPN2 [1] is < 50 nM; at PTPN2 [2], 50 to 150 nM.

Consider `Cn1c(=O)n(C2CCC(=O)NC2=O)c2ccc(N3CCC(CCNC(=O)Nc4ccc5c(F)c(N6CC(=O)NS6(=O)=O)c(O)cc5c4)CC3)c(F)c21` (centres unmarked) [Degrader 144], for which the DC50 at PTPN2 [1] is 50 to 150 nM; at PTPN2 [2], < 50 nM.

On to `Cn1c(=O)n(C2CCC(=O)NC2=O)c2ccc3c(c21)CCCN3CCCC(=O)Nc1ccc2c(F)c(N3CC(=O)NS3(=O)=O)c(O)cc2c1` (centres unmarked) [Degrader 145], for which the DC50 at PTPN2 [1] and at PTPN2 [2] was ≥ 500 nM throughout.

As to `Cn1c(=O)n(C2CCC(=O)NC2=O)c2ccc3c(c21)CCCN3CCCCC(=O)Nc1ccc2c(F)c(N3CC(=O)NS3(=O)=O)c(O)cc2c1` (centres unmarked) [Degrader 146], the DC50 is 50 to 150 nM on PTPN2 [1] and < 50 nM at PTPN2 [2].

Turning to `Cn1c(=O)n(C2CCC(=O)NC2=O)c2ccc(N3CCC(CC(=O)Nc4ccc5c(F)c(N6CC(=O)NS6(=O)=O)c(O)cc5c4)CC3)cc21` (centres unmarked) [Degrader 147], the DC50 at PTPN2 [1] and on PTPN2 [2] was 150 to 500 nM in each case.

For the compound `C[C@@H]1CN(CC(=O)Nc2ccc3c(F)c(N4CC(=O)NS4(=O)=O)c(O)cc3c2)CCN1c1ccc2c(c1F)n(C)c(=O)n2C1CCC(=O)NC1=O` (some centres unmarked) [Degrader 148], the DC50 lay within 150 to 500 nM on PTPN2 [1] and 50 to 150 nM at PTPN2 [2].

For the compound `Cn1c(=O)n(C2CCC(=O)NC2=O)c2ccc(-c3ccn(CC(=O)Nc4ccc5c(F)c(N6CC(=O)NS6(=O)=O)c(O)cc5c4)n3)cc21` (centres unmarked) [Degrader 149], the DC50 on PTPN2 [1] and at PTPN2 [2] was 150 to 500 nM throughout.

As for `C[C@@H]1CN(CC(=O)Nc2ccc3c(F)c(N4CC(=O)NS4(=O)=O)c(O)cc3c2)CCN1c1cc2c(cc1F)n(C1CCC(=O)NC1=O)c(=O)n2C` (some centres unmarked) [Degrader 150], the 50% degradation concentration (DC50) at PTPN2 [1] and on PTPN2 [2] was 150 to 500 nM in each case.

On to `Cn1c(=O)n(C2CCC(=O)NC2=O)c2ccc([C@H]3CCCN(CC(=O)Nc4ccc5c(F)c(N6CC(=O)NS6(=O)=O)c(O)cc5c4)C3)cc21` (some centres unmarked) [Degrader 151], for which the half-maximal degradation concentration (DC50) at PTPN2 [1] and at PTPN2 [2] was 150 to 500 nM in each case.

Regarding `Cn1c(=O)n(C2CCC(=O)NC2=O)c2ccc([C@@H]3CCCN(CC(=O)Nc4ccc5c(F)c(N6CC(=O)NS6(=O)=O)c(O)cc5c4)C3)cc21` (some centres unmarked) [Degrader 152], the DC50 on PTPN2 [1] lay in the range of 150 to 500 nM; at PTPN2 [2], 50 to 150 nM.

As for `Cn1c(=O)n(C2CCC(=O)NC2=O)c2ccc(-n3cc(CC(=O)Nc4ccc5c(F)c(N6CC(=O)NS6(=O)=O)c(O)cc5c4)cn3)cc21` (centres unmarked) [Degrader 153], the half-maximal degradation concentration (DC50) is 50 to 150 nM at PTPN2 [1] and 150 to 500 nM at PTPN2 [2].

On to `O=C1CCC(N2CCc3cc(C4CCN(CC(=O)N5CCC(c6ccc7cc(O)c(N8CC(=O)NS8(=O)=O)c(F)c7c6)CC5)CC4)ccc32)C(=O)N1` (centres unmarked) [Degrader 154], for which the DC50 on PTPN2 [1] and on PTPN2 [2] was 150 to 500 nM throughout.

With `O=C1CCC(N2C(=O)c3cccc4c(-c5ccc(CC(=O)Nc6ccc7c(F)c(N8CC(=O)NS8(=O)=O)c(O)cc7c6)cc5)ccc2c34)C(=O)N1` (centres unmarked) [Degrader 155], the DC50 is 50 to 150 nM on PTPN2 [1] and 150 to 500 nM at PTPN2 [2].

Turning to `Cn1c(=O)n(C2CCC(=O)NC2=O)c2ccc(C3=CCC(CC(=O)Nc4ccc5c(F)c(N6CC(=O)NS6(=O)=O)c(O)cc5c4)CC3)cc21` (centres unmarked) [Degrader 157], the DC50 at PTPN2 [1] and on PTPN2 [2] was 50 to 150 nM throughout.
